Source: the supplement of paper PMC10307832

Columns and labels:
Assay in all cases: relative viability (nuclei count vs DMSO), 5 days (fraction); higher = more cells survive
LCLC-103H = test system: LCLC-103H
Procedure, shortened: (§1)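 Lung cancer cell lines, seeded in 1536-well plates, were treated the following day by pin tool with a single drug or with five library-drug doses (not always all listed) in √10 steps on top of a fixed anchor-drug dose. Cells were fixed and nuclei stained in one step after 5 days, and nuclei were counted. Relative viability is the nuclei count for treated wells divided by that for vehicle wells, reported as medians of duplicate plates.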

LXF-289 = test system: LXF-289
Procedure, shortened: as §1

NCI-H1355 = test system: NCI-H1355
Procedure, shortened: as §1

NCI-H1651 = test system: NCI-H1651
Procedure, shortened: as §1

NCI-H1755 = test system: NCI-H1755
Procedure, shortened: as §1

NCI-H1915 = test system: NCI-H1915
Procedure, shortened: as §1

NCI-H2347 = test system: NCI-H2347
Procedure, shortened: as §1

NCI-H3122 = test system: NCI-H3122
Procedure, shortened: as §1

NCI-H322M = test system: NCI-H322M
Procedure, shortened: as §1

NCI-H441 = test system: NCI-H441
Procedure, shortened: as §1

NCI-H460 = test system: NCI-H460
Procedure, shortened: as §1

NCI-H520 = test system: NCI-H520
Procedure, shortened: as §1

NCI-H522 = test system: NCI-H522
Procedure, shortened: as §1

NCI-H596 = test system: NCI-H596
Procedure, shortened: as §1

NCI-H661 = test system: NCI-H661
Procedure, shortened: as §1

NCI-H727 = test system: NCI-H727
Procedure, shortened: as §1

PC-14 = test system: PC-14
Procedure, shortened: as §1

RERF-LC-KJ = test system: RERF-LC-KJ
Procedure, shortened: as §1

SK-MES-1 = test system: SK-MES-1
Procedure, shortened: as §1

SW 900 = test system: SW 900
Procedure, shortened: as §1

With `O=c1cc(N2CCOCC2)oc2c(-c3cccc4c3sc3ccccc34)cccc12` + Cc1cc(Nc2cc(N3CCN(C)CC3)nc(Sc3ccc(NC(=O)C4CC4)cc3)n2)n[nH]1 [Tozasertib] (partner 0.1 µM) the relative viability (LCLC-103H; first compound 0.01 µM) was 0.425, the relative viability (LCLC-103H; first compound 0.03162 µM) was 0.538 and the relative viability (LCLC-103H; first compound 0.1 µM) was 0.485. It also gave a relative viability (LCLC-103H; first compound 0.3162 µM) of 0.504, a relative viability (LCLC-103H; first compound 1 µM) of 0.457 and a relative viability (LXF-289; first compound 0.01 µM) of 0.235. It also gave a relative viability (LXF-289; first compound 0.03162 µM) of 0.216, a relative viability (LXF-289; first compound 0.1 µM) of 0.218 and a relative viability (LXF-289; first compound 0.3162 µM) of 0.174. For the same compound, the relative viability (LXF-289; first compound 1 µM) was 0.197, the relative viability (NCI-H1355; first compound 0.01 µM) was 0.545 and the relative viability (NCI-H1355; first compound 0.03162 µM) was 0.59. For the same compound, the relative viability (NCI-H1355; first compound 0.1 µM) was 0.552, the relative viability (NCI-H1355; first compound 0.3162 µM) was 0.55 and the relative viability (NCI-H1355; first compound 1 µM) was 0.514. It also gave a relative viability (NCI-H1651; first compound 0.01 µM) of 0.687, a relative viability (NCI-H1651; first compound 0.03162 µM) of 0.848 and a relative viability (NCI-H1651; first compound 0.1 µM) of 0.844. The relative viability (NCI-H1651; first compound 0.3162 µM) was 0.72, the relative viability (NCI-H1651; first compound 1 µM) was 0.751 and the relative viability (NCI-H1755; first compound 0.01 µM) was 0.592. It also gave a relative viability (NCI-H1755; first compound 0.03162 µM) of 0.669, a relative viability (NCI-H1755; first compound 0.1 µM) of 0.693 and a relative viability (NCI-H1755; first compound 0.3162 µM) of 0.539. The relative viability (NCI-H1755; first compound 1 µM) was 0.542, the relative viability (NCI-H1915; first compound 0.01 µM) was 0.419 and the relative viability (NCI-H1915; first compound 0.03162 µM) was 0.438. For the same compound, the relative viability (NCI-H1915; first compound 0.1 µM) was 0.485, the relative viability (NCI-H1915; first compound 0.3162 µM) was 0.456 and the relative viability (NCI-H1915; first compound 1 µM) was 0.422. It also gave a relative viability (NCI-H2347; first compound 0.01 µM) of 0.618, a relative viability (NCI-H2347; first compound 0.03162 µM) of 0.599 and a relative viability (NCI-H2347; first compound 0.1 µM) of 0.538. The relative viability (NCI-H2347; first compound 0.3162 µM) was 0.526, the relative viability (NCI-H2347; first compound 1 µM) was 0.549 and the relative viability (NCI-H3122; first compound 0.01 µM) was 0.39. For the same compound, the relative viability (NCI-H3122; first compound 0.03162 µM) was 0.418, the relative viability (NCI-H3122; first compound 0.1 µM) was 0.417 and the relative viability (NCI-H3122; first compound 0.3162 µM) was 0.378. It also gave a relative viability (NCI-H3122; first compound 1 µM) of 0.349, a relative viability (NCI-H322M; first compound 0.01 µM) of 0.49 and a relative viability (NCI-H322M; first compound 0.03162 µM) of 0.464. The relative viability (NCI-H322M; first compound 0.1 µM) was 0.485, the relative viability (NCI-H322M; first compound 0.3162 µM) was 0.473 and the relative viability (NCI-H322M; first compound 1 µM) was 0.407. It also gave a relative viability (NCI-H441; first compound 0.01 µM) of 0.671, a relative viability (NCI-H441; first compound 0.03162 µM) of 0.713 and a relative viability (NCI-H441; first compound 0.1 µM) of 0.692. The relative viability (NCI-H441; first compound 0.3162 µM) was 0.658, the relative viability (NCI-H441; first compound 1 µM) was 0.719 and the relative viability (NCI-H460; first compound 0.01 µM) was 0.342. For the same compound, the relative viability (NCI-H460; first compound 0.03162 µM) was 0.479, the relative viability (NCI-H460; first compound 0.1 µM) was 0.511 and the relative viability (NCI-H460; first compound 0.3162 µM) was 0.417. The relative viability (NCI-H460; first compound 1 µM) was 0.465, the relative viability (NCI-H520; first compound 0.01 µM) was 0.38 and the relative viability (NCI-H520; first compound 0.03162 µM) was 0.409. For the same compound, the relative viability (NCI-H520; first compound 0.1 µM) was 0.418, the relative viability (NCI-H520; first compound 0.3162 µM) was 0.438 and the relative viability (NCI-H520; first compound 1 µM) was 0.442. For the same compound, the relative viability (NCI-H522; first compound 0.01 µM) was 0.548, the relative viability (NCI-H522; first compound 0.03162 µM) was 0.607 and the relative viability (NCI-H522; first compound 0.1 µM) was 0.594. It also gave a relative viability (NCI-H522; first compound 0.3162 µM) of 0.551, a relative viability (NCI-H522; first compound 1 µM) of 0.61 and a relative viability (NCI-H596; first compound 0.01 µM) of 0.834. The relative viability (NCI-H596; first compound 0.03162 µM) was 0.939, the relative viability (NCI-H596; first compound 0.1 µM) was 0.921 and the relative viability (NCI-H596; first compound 0.3162 µM) was 0.865. It also gave a relative viability (NCI-H596; first compound 1 µM) of 1.03, a relative viability (NCI-H661; first compound 0.01 µM) of 0.367 and a relative viability (NCI-H661; first compound 0.03162 µM) of 0.356. The relative viability (NCI-H661; first compound 0.1 µM) was 0.335, the relative viability (NCI-H661; first compound 0.3162 µM) was 0.36 and the relative viability (NCI-H661; first compound 1 µM) was 0.362. The relative viability (NCI-H727; first compound 0.01 µM) was 0.607, the relative viability (NCI-H727; first compound 0.03162 µM) was 0.644 and the relative viability (NCI-H727; first compound 0.1 µM) was 0.673. It also gave a relative viability (NCI-H727; first compound 0.3162 µM) of 0.632, a relative viability (NCI-H727; first compound 1 µM) of 0.673 and a relative viability (PC-14; first compound 0.01 µM) of 0.567. It also gave a relative viability (PC-14; first compound 0.03162 µM) of 0.572, a relative viability (PC-14; first compound 0.1 µM) of 0.575 and a relative viability (PC-14; first compound 0.3162 µM) of 0.535. For the same compound, the relative viability (PC-14; first compound 1 µM) was 0.577, the relative viability (RERF-LC-KJ; first compound 0.01 µM) was 0.482 and the relative viability (RERF-LC-KJ; first compound 0.03162 µM) was 0.576. It also gave a relative viability (RERF-LC-KJ; first compound 0.1 µM) of 0.496, a relative viability (RERF-LC-KJ; first compound 0.3162 µM) of 0.429 and a relative viability (RERF-LC-KJ; first compound 1 µM) of 0.522. It also gave a relative viability (SK-MES-1; first compound 0.01 µM) of 0.964, a relative viability (SK-MES-1; first compound 0.03162 µM) of 0.935 and a relative viability (SK-MES-1; first compound 0.1 µM) of 1.05. The relative viability (SK-MES-1; first compound 0.3162 µM) was 0.897, the relative viability (SK-MES-1; first compound 1 µM) was 0.875 and the relative viability (SW 900; first compound 0.01 µM) was 0.505. The relative viability (SW 900; first compound 0.03162 µM) was 0.651, the relative viability (SW 900; first compound 0.1 µM) was 0.656 and the relative viability (SW 900; first compound 0.3162 µM) was 0.574. The relative viability (SW 900; first compound 1 µM) was 0.548.
